Results: patent publication US9138457B2, “Therapeutic modulation of ocular surface lubrication” (THE REGENTS OF THE UNIVERSITY OF CALIFORNIA, priority 2008, dated 2015)
Where two headings read alike, the source gives them in different places.

Tested on: PRG4 mRNA
Conditions: primary human corneal epithelial cells; for increase in PRG4 mRNA levels relative to the control levels at Day 0: 10 nM DHT
Procedure: (§1) Cells were grown in keratinocyte serum free media until reaching about 80% confluence. Cells (n=3 wells/treatment/experiment) were then incubated with either vehicle or 10 nM dihydrotestosterone (DHT) for up to 5 days. At designated times cells were processed for total RNA isolation and analysis of PRG4 mRNA mRNA by RT-PCR.
as §1, with “Methods. Cells were” for “Cells were”, “by RT-PCR. Results.” for “by RT-PCR.”

Q: Which “increase in PRG4 mRNA levels relative to the control levels at Day 0” value (3 days of hormone exposure) does the source give for `C[C@]12CCC(=O)C[C@@H]1CC[C@@H]1[C@@H]2CC[C@]2(C)[C@@H](O)CC[C@@H]12` [DHT, dihydrotestosterone] here?
A: 10.3 fold

Q: What about the “increase in PRG4 mRNA levels relative to the control levels at Day 0” value (4 days of hormone exposure) of the same molecule?
A: 3.6 fold

Q: What about the “increase in PRG4 mRNA levels relative to the control levels at Day 0” value (5 days of hormone exposure) of the same molecule?
A: 2.8 fold

Q: What about the “increase in PRG4 mRNA content relative to that of vehicle-treated controls” value (another experiment, treatment of cells for 5 days with DHT) of the same molecule?
A: 46 fold
